Experimental findings from the supplement of paper PMC10307832 are described below.

Common to all, as to assay: relative viability (nuclei count vs DMSO), 5 days (fraction); higher = more cells survive
Compound in the experiment “BAM7 + Lapatinib”: CCOC1=CC=CC=C1N=NC2=C(NN(C2=O)C3=NC(=CS3)C4=CC=CC=C4)C [BAM7] + CS(=O)(=O)CCNCc1ccc(-c2ccc3ncnc(Nc4ccc(OCc5cccc(F)c5)c(Cl)c4)c3c2)o1 [Lapatinib] (partner 2 µM)
A digest of the protocol:
(§1)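 Values are medians from duplicate plates. Each reflects relative viability, defined as the nuclei count of treated wells over that of vehicle wells. Lung cancer cell lines in 1536-well plates were pin-tool dosed one day after seeding with one drug alone or with a fixed anchor-drug dose plus five library-drug doses (not always all listed) in √10 steps, then fixed, stained and imaged at 4× after 5 days.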

Compound in experiment [1]: CCn1c(-c2nonc2N)nc2c(C#CC(C)(C)O)ncc(OC[C@H]3CCCNC3)c21 + CC1(C)CCC(c2ccc(Cl)cc2)=C(CN2CCN(c3ccc(C(=O)NS(=O)(=O)c4ccc(N[C@H](CCN5CCOCC5)CSc5ccccc5)c(S(=O)(=O)C(F)(F)F)c4)cc3)CC2)C1 [Navitoclax] (partner 0.5 µM)
In outline:
as §1

Compound in experiment [2]: CCn1c(-c2nonc2N)nc2c(C#CC(C)(C)O)ncc(OC[C@H]3CCCNC3)c21 + Nc1nc2[nH]cc(CCc3ccc(C(=O)N[C@@H](CCC(=O)O)C(=O)O)cc3)c2c(=O)[nH]1 [Pemetrexed] (partner 0.2 µM)
A digest of the protocol:
as §1

Compound in experiment [3]: CCn1c(-c2nonc2N)nc2c(C#CC(C)(C)O)ncc(OC[C@H]3CCCNC3)c21 + CC(=O)Nc1cccc(-n2c(=O)n(C3CC3)c(=O)c3c(Nc4ccc(I)cc4F)n(C)c(=O)c(C)c32)c1 [Trametinib] (partner 0.02 µM)
In outline: as §1

As for UMC-11, the relative viability amounted to 1.02 with BAM7 + Lapatinib (first compound 0.5 µM); 0.981 with BAM7 + Lapatinib (first compound 5 µM); 1.12 with BAM7 + Lapatinib (first compound 15.81 µM); 1.15 in the experiment with BAM7 + Lapatinib (first compound 50 µM); 0.323 in experiment [1] (first compound 0.01 µM); 0.288 in experiment [1] (first compound 0.03162 µM). Besides, the relative viability in experiment [1] (first compound 0.1 µM) worked out at 0.323; in experiment [1] (first compound 0.3162 µM) it was 0.29; in experiment [1] (first compound 1 µM) it was 0.3; in experiment [2] (first compound 0.01 µM), 0.804; in experiment [2] (first compound 0.03162 µM), 0.758; in experiment [2] (first compound 0.1 µM), 0.749. Also, the relative viability was determined as 0.722 in experiment [2] (first compound 0.3162 µM); 0.758 in experiment [2] (first compound 1 µM); 0.765 in experiment [3] (first compound 0.01 µM); 0.701 in experiment [3] (first compound 0.03162 µM); 0.754 in experiment [3] (first compound 0.1 µM); 0.754 in experiment [3] (first compound 0.3162 µM). Moreover, the relative viability in experiment [3] (first compound 1 µM) came to 0.618.
